From patent US7732603B2, “Organic compounds as agents for the treatment of aldosterone mediated conditions” (Novartis AG, priority 2002, dated 2010)
Where a name gives a salt, the structure may show the parent alone.

Row | SMILES | melting point
1 | COc1ccc(CN2Cc3cncn3C(c3ccc(-c4ccc(Cl)cc4)cc3)C2=O)cc1.Cl (stereo not drawn) | 270 to 273 °C
2 | CN1Cc2cncn2C(c2cccc(Br)c2)C1=O.Cl (stereo not drawn) | 265 °C (dec.)
3 | Cl.O=C1C(c2cccc(Br)c2)n2cncc2CN1Cc1cccc(F)c1 (stereo not drawn) | 240 to 243 °C
4 | O=C1Cn2cncc2CN1Cc1ccc(F)cc1 [Example 65, 7-(4-Fluoro-benzyl)-7,8-dihydro-imidazo[1,5-a]pyrazin-6-one] | 112 to 114 °C
5 | Brc1ccc(C2CN(Cc3ccccc3)Cc3cncn32)cc1 (stereo not drawn) (as salt: toluene sulfonate) [Example 91, 5-(4-Bromophenyl)-7-benzyl-5,6,7,8-tetrahydro-imidazo[1,5-a]pyrazine p-toluene sulfonate] | 223 to 225 °C
6 | C[C@@H](c1ccccc1)N1Cc2cncn2C(c2ccc(C#N)cc2)C1=O (single isomer, unassigned; (-)) [Example 62] | 157 to 158 °C
7 | CC1(c2cccc(Br)c2)C(=O)N(CC2CC2)Cc2cncn21.Cl (stereo not drawn) | 234 to 236 °C
8 | Cl.O=C1C(c2ccccc2)n2cncc2CN1Cc1ccccc1 (stereo not drawn) | 249 to 251 °C
9 | Cl.O=C1C(c2ccc(Br)cc2)n2cncc2CN1Cc1ccc(C(F)(F)F)cc1 (stereo not drawn) | 113 to 114 °C
10 | Cl.O=C1C(c2ccc(Br)cc2)n2cncc2CN1Cc1ccccc1 (stereo not drawn) | 250 °C (dec.)
11 | Cl.O=C1C(c2ccc(Br)cc2)n2cncc2CN1CC1CC1 (stereo not drawn) | 223 to 225 °C
12 | COc1ccc(CCN2Cc3cncn3C(c3cccc(Br)c3)C2=O)cc1.Cl (stereo not drawn) | 202 to 204 °C
13 | O=C1C(c2cccc(Br)c2)n2cncc2CN1Cc1ccncc1 (stereo not drawn) [Example 54, 5-(3-Bromo-phenyl)-7-pyridin-4-ylmethyl-7,8-dihydro-imidazo[1,5-a]pyrazin-6-one] | 50 to 54 °C
14 | CC1(c2ccc(Br)cc2)C(=O)N(CC2CC2)Cc2cncn21.Cl (stereo not drawn) | 228 to 230 °C
15 | Cl.O=C1C(c2cccc(Br)c2)n2cncc2CN1CCc1cccc(Cl)c1 (stereo not drawn) | 184 to 186 °C
16 | Cl.O=C1C(c2cccc(-c3ccc(F)cc3)c2)n2cncc2CN1Cc1ccccc1 (stereo not drawn) | 235 to 237 °C
17 | Cl.Cl.N#Cc1ccc(C2C(=O)N(CCCN3CCOCC3)Cc3cncn32)cc1 (stereo not drawn) | 246 to 248 °C
18 | O=C1N(Cc2ccc(F)cc2)Cc2cncn2C1(Cc1ccccc1)c1ccc(Br)cc1 (stereo not drawn) [Example 87, 5-Benzyl-5-(4-bromo-phenyl)-7-(4-fluoro-benzyl)-7,8-dihydro-imidazo[1,5-a]pyrazin-6-one] | 166 to 168 °C
19 | Cc1cccc(CN2Cc3cncn3C(c3ccc(C#N)cc3)C2=O)c1.Cl (stereo not drawn) | 275 to 277 °C
20 | Cc1ccc(CN2Cc3cncn3C(c3cccc(Br)c3)C2=O)cc1.Cl (stereo not drawn) | 265 to 267 °C
21 | C[C@H](c1ccccc1)N1Cc2cncn2C(c2ccc(Br)cc2)C1=O (single isomer, unassigned; (+)) [Example 60] | 147 to 148 °C
22 | Cl.O=C1C(c2cccc(Br)c2)n2cncc2CN1Cc1cccs1 (stereo not drawn) | 233 to 235 °C
23 | N#Cc1ccc(C2(Cc3ccccc3)C(=O)N(CC3CC3)Cc3cncn32)cc1 (stereo not drawn) [Example 89, 4-(5-Benzyl-7-cyclopropylmethyl-6-oxo-5,6,7,8-tetrahydro-imidazo[1,5-a]pyrazin-5-yl)-benzonitrile] | 156 to 158 °C
24 | N#Cc1cccc(C2C(=O)N(Cc3ccccc3)Cc3cncn32)c1 (stereo not drawn) [Example 66] | 163 to 165 °C
25 | COc1ccc(CN2Cc3cncn3C(c3cccc(Br)c3)C2=O)cc1.Cl (stereo not drawn) | 246 to 248 °C
26 | Cc1ccc(CN2Cc3cncn3C(c3cccc(C#N)c3)C2=O)cc1.Cl (stereo not drawn) | 260 to 263 °C

Row | SMILES | melting point
27 | Cl.N#Cc1cccc(C2C(=O)N(CC3CC3)Cc3cncn32)c1 (stereo not drawn) | 225 to 227 °C
28 | CC1(c2ccc(C#N)cc2)C(=O)N(Cc2ccccc2)Cc2cncn21.Cl (stereo not drawn) | 230 to 232 °C
29 | Cl.O=C1C(c2cccc(Br)c2)n2cncc2CN1Cc1cccc(C(F)(F)F)c1 (stereo not drawn) | 246 to 248 °C
30 | COC(=O)c1ccc(C2C(=O)N(Cc3ccccc3)Cc3cncn32)cc1.Cl (stereo not drawn) | 236 to 238 °C
31 | Cc1ccc(CN2Cc3cncn3CC2=O)cc1 [Example 64, 7-(4-Methyl-benzyl)-7,8-dihydro-imidazo[1,5-a]pyrazin-6-one] | 105 to 108 °C
32 | Cl.O=C1C(c2ccc(Br)cc2)n2cncc2CN1CCc1ccc(F)cc1 (stereo not drawn) | 136 to 138 °C
33 | Cl.N#Cc1cccc(C2C(=O)N(Cc3ccc(Cl)cc3)Cc3cncn32)c1 (stereo not drawn) | 236 to 238 °C
34 | Cl.O=C1C(c2cccc(Br)c2)n2cncc2CN1CCc1ccccc1 (stereo not drawn) | 205 to 207 °C
35 | C[C@@H](c1ccc(F)cc1)N1Cc2cncn2C(C)(c2ccc(C#N)cc2)C1=O (stereo partly drawn) [Example 86, 4(7-[(s)-1-(4-Fluoro-phenyl)-ethyl]-5-methyl-6-oxo-5,6,7,8-tetrahydro-imidazo[1,5-a]pyrazin-5-yl]-benzonitrile] | 78 to 82 °C
36 | Cl.O=C1C(c2cccc(Br)c2)n2cncc2CN1Cc1ccco1 (stereo not drawn) | 215 to 218 °C
37 | Cl.O=C1C(c2cccc(-c3ccccc3)c2)n2cncc2CN1Cc1ccccc1 (stereo not drawn) | 232 to 234 °C
38 | O=C1C(c2cccc(Br)c2)n2cncc2CN1Cc1cccnc1 (stereo not drawn) [Example 52, 5-(3-Bromo-phenyl)-7-pyridin-3-ylmethyl-7,8-dihydro-imidazo[1,5-a]pyrazin-6-one] | 50 to 54 °C
39 | Cc1ccc(CCN2Cc3cncn3C(c3cccc(Br)c3)C2=O)cc1.Cl (stereo not drawn) | 197 to 199 °C
40 | Cl.N#Cc1ccc(C2C(=O)N(Cc3ccc(Cl)cc3)Cc3cncn32)cc1 (stereo not drawn) | 245 to 246 °C
41 | Cl.O=C1C(c2ccc(-c3ccsc3)cc2)n2cncc2CN1CC1CC1 (stereo not drawn) | 217 to 219 °C
42 | N#Cc1ccc(C2CC(=O)N(CC3CC3)Cc3cncn32)cc1 (stereo not drawn) [Example 93, 4-(8-Cyclopropylmethyl-7-oxo-6,7,8,9-tetrahydro-5H-imidazo[1,5-a][1,4]diazepin-5-yl)-benzonitrile] | 178 to 180 °C
43 | Cl.N#Cc1cccc(C2C(=O)N(CCc3ccccc3)Cc3cncn32)c1 (stereo not drawn) | 203 to 205 °C
44 | Cc1ccc(CN2Cc3cncn3C(c3ccc(C#N)cc3)C2=O)cc1 (stereo not drawn) [Example 10, 4-[7-(4-Methyl-benzyl)-6-oxo-5,6,7,8-tetrahydro-imidazo[1,5-a]pyrazin-5-yl)-benzonitrile] | 168 to 170 °C
45 | Cl.N#Cc1ccc(C2C(=O)N(CCc3ccc(F)cc3)Cc3cncn32)cc1 (stereo not drawn) | 160 to 162 °C
46 | CN1Cc2cncn2C(c2ccc(Br)cc2)C1=O (stereo not drawn) [Example 20, 5-(4-Bromo-phenyl)-7-methyl-7,8-dihydro-imidazo[1,5-a]pyrazin-6-one] | 143 to 144 °C
47 | Cl.N#Cc1cccc(C2C(=O)N(Cc3ccc(F)cc3)Cc3cncn32)c1 (stereo not drawn) | 260 to 263 °C
48 | O=C1C(c2ccc(-c3ccccc3)cc2)n2cncc2CN1Cc1ccc(F)cc1 (stereo not drawn) [Example 78, 5-Biphenyl-4-yl-7-(4-fluoro-benzyl)-7,8-dihydro-imidazo[1,5-a]pyrazin-6-one] | 189 to 190 °C
49 | COc1ccc(CN2Cc3cncn3C(c3ccc(C#N)cc3)C2=O)cc1 (stereo not drawn) [Example 9, 4-[7-(4-Methoxy-benzyl)-6-oxo-5,6,7,8-tetrahydro-imidazo[1,5-a]pyrazin-5-yl)-benzonitrile] | 155 to 157 °C
50 | CN1Cc2cncn2C(c2ccccc2)C1=O.Cl (stereo not drawn) | 252 to 254 °C
51 | CN1Cc2cncn2C(c2ccc(C#N)cc2)C1=O.Cl (stereo not drawn) | 222 to 224 °C
